From ChEMBL document CHEMBL4813985, “Lead optimization generates selenium-containing miconazole CYP51 inhibitors with improved pharmacological profile for the treatment of fungal infections” (Eur J Med Chem, 2021)
Values after ≈ are worked out from the molar mass of the structure shown.

Legend:
[1] = test system: Candida albicans; assay: Antifungal activity against fluconazole-resistant Candida albicans 904 assessed as inhibition of microbial growth after 24 hrs by broth microdilution method; assay type: functional
[2] = test system: Candida albicans; assay: Antifungal activity against fluconazole-resistant Candida albicans 632 assessed as inhibition of microbial growth after 24 hrs by broth microdilution method; assay type: functional
[3] = Hemolytic activity in rabbit RBC assessed as hemolysis ratio at 2 ug/ml measured after 3 hrs by microplate reader assay relative to control; assay type: ADME, cell-based, Oryctolagus cuniculus, Erythrocyte; details: rabbit red blood cells (erythrocytes), at 2 µg/mL, read-out: Activity
[4] = Metabolic stability in mouse liver microsomes assessed as clearance; assay type: ADME, Microsome; details: read-out: CLH
[5] = test system: Candida albicans; assay: Antifungal activity against fluconazole-resistant Candida albicans 901 assessed as inhibition of microbial growth after 24 hrs by broth microdilution method; assay type: functional
[6] = test system: PC-3; assay: Cytotoxicity against human PC3 cells assessed as reduction in cell viability incubated for 96 hrs by MTT assay; assay type: cell-based; details: PC-3, 96 h, read-out: IC50
[7] = test system: Pichia kudriavzevii; assay: Antifungal activity against Candida krusei AS2.1045 measured after 24 hrs by broth microdilution assay; assay type: functional
[8] = test system: MCF-10A; assay: Cytotoxicity against human MCF-10A cells assessed as reduction in cell viability incubated for 96 hrs by MTT assay; assay type: cell-based; details: read-out: IC50
[9] = test system: [Candida] zeylanoides; assay: Antifungal activity against Candida zeylanoides CMGCC2.3739 measured after 24 hrs by broth microdilution assay; assay type: functional; details: Dujonia zeylanoides
[10] = Hemolytic activity in rabbit RBC assessed as hemolysis ratio at 16 ug/ml measured after 3 hrs by microplate reader assay relative to control; assay type: ADME, cell-based, Oryctolagus cuniculus, Erythrocyte; details: rabbit red blood cells (erythrocytes), at 16 µg/mL, read-out: Activity
[11] = Hemolytic activity in rabbit RBC assessed as hemolysis ratio at 1 ug/ml measured after 3 hrs by microplate reader assay relative to control; assay type: ADME, cell-based, Oryctolagus cuniculus, Erythrocyte; details: rabbit red blood cells (erythrocytes), at 1 µg/mL, read-out: Activity
[12] = test system: Aspergillus fumigatus; assay: Antifungal activity against Aspergillus fumigatus CMGCC3.7795 measured after 72 hrs by broth microdilution assay; assay type: functional
[13] = test system: Nakaseomyces glabratus; assay: Antifungal activity against Candida glabrata measured after 24 hrs by broth microdilution assay; assay type: functional
[14] = test system: HL-60; assay: Cytotoxicity against human HL-60 cells assessed as reduction in cell viability incubated for 96 hrs by MTT assay; assay type: cell-based; details: HL-60, 96 h
[15] = test system: Candida albicans; assay: Antifungal activity against Candida albicans CPCC400616 measured after 24 hrs by broth microdilution assay; assay type: functional
[16] = Hemolytic activity in rabbit RBC assessed as hemolysis ratio at 8 ug/ml measured after 3 hrs by microplate reader assay relative to control; assay type: ADME, cell-based, Oryctolagus cuniculus, Erythrocyte; details: rabbit red blood cells (erythrocytes), at 8 µg/mL, read-out: Activity
[17] = test system: Candida parapsilosis; assay: Antifungal activity against Candida parapsilosis ATCC 22019 measured after 24 hrs by broth microdilution assay; assay type: functional; details: Lodderomyces parapsilosis
[18] = test system: Cryptococcus neoformans; assay: Antifungal activity against Cryptococcus neoformans CMGCC2.3161 measured after 72 hrs by broth microdilution assay; assay type: functional
[19] = test system: Erythrocyte; assay: Hemolytic activity in rabbit RBC measured after 3 hrs by microplate reader assay; assay type: ADME, cell-based, Oryctolagus cuniculus
[20] = test system: Candida albicans; assay: Antifungal activity against Candida albicans ATCC SC5314 measured after 24 hrs by broth microdilution assay; assay type: functional
[21] = test system: Candida albicans; assay: Antifungal activity against fluconazole-resistant Candida albicans CaR assessed as inhibition of microbial growth after 24 hrs by broth microdilution method; assay type: functional
[22] = Metabolic stability in mouse liver microsomes assessed as half life; assay type: ADME, Microsome
[23] = test system: Candida albicans; assay: Antifungal activity against fluconazole-resistant Candida albicans 17# assessed as inhibition of microbial growth after 24 hrs by broth microdilution method; assay type: functional
[24] = test system: MDA-MB-231; assay: Cytotoxicity against human MDA-MB-231 cells assessed as reduction in cell viability incubated for 96 hrs by MTT assay; details: MDA-MB-231, 96 h
[25] = Hemolytic activity in rabbit RBC assessed as hemolysis ratio at 4 ug/ml measured after 3 hrs by microplate reader assay relative to control; assay type: ADME, cell-based, Oryctolagus cuniculus, Erythrocyte; details: rabbit red blood cells (erythrocytes), at 4 µg/mL, read-out: Activity

SMILES: Clc1ccc(C(Cn2ccnc2)[Se]Cc2ccccc2Cl)c(Cl)c1 (stereo not given)
- MIC [1]: 0.25 µg/mL
- MIC [2]: 1 µg/mL
- hemolysis at 3 h, 2 ug/ml [3]: 3.15%
- CLint scaled [4]: 1310 mL/min/kg
- MIC [5]: 0.5 µg/mL
- IC50 [6]: 13.1 µM
- MIC [7]: 0.13 µg/mL (≈ 0.292 µM)
- IC50 [8]: 30.2 µM
- MIC [9]: 1 µg/mL (≈ 2.25 µM)
- hemolysis at 3 h, 16 ug/ml [10]: 98.2%
- hemolysis at 3 h, 1 ug/ml [11]: 0%
- MIC [12]: 2 µg/mL (≈ 4.5 µM)
- MIC [13]: 0.5 µg/mL (≈ 1.12 µM)
- IC50 [14]: 1020 nM
- MIC [15]: 0.02 µg/mL (≈ 0.045 µM)
- hemolysis at 3 h, 8 ug/ml [16]: 93.2%
- MIC [17]: 0.13 µg/mL (≈ 0.292 µM)
- MIC [18]: 0.25 µg/mL (≈ 0.562 µM)
- MHC [19]: 4 µg/mL
- MIC [20]: 0.01 µg/mL (≈ 0.0225 µM)
- MIC [21]: 0.06 µg/mL
- half-life [22]: 4.2 min
- MIC [23]: 0.13 µg/mL
- IC50 [24]: 9.06 µM
- hemolysis at 3 h, 4 ug/ml [25]: 58.9%
